Laboratory results published in US20020137929A1, “1 - (3-heterocyclylphenyl) isothiourea, -isourea, -guanidine and -amidine herbicidal agents” (Intellectual Property Department, BASF Aktiengesellschaft, priority 1998, published 2002).

Legend:
[1] = tested on: AMBEL (Ragweed, Common); experiment: Postemergence herbicidal evaluation; assay type: in vivo, Ambrosia artemisifolia; details: postemergence
Outline: (§1)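 Herbicidal effect was judged by eye on a 0–9 scale covering stand, vigor, deformity, size and chlorosis, compared with controls, four to five weeks after seedlings about two weeks old were sprayed (40 psi, ~0.0156–0.500 kg/ha).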

[2] = tested on: CASOB (Sicklepod); experiment: Postemergence herbicidal evaluation; assay type: in vivo, Cassia obtusifolia; details: postemergence
Outline: as §1

[3] = tested on: CHEAL (Lambsquarters, Common); experiment: Postemergence herbicidal evaluation; assay type: in vivo, Chenopodium album; details: postemergence
Outline: as §1

[4] = tested on: GALAP (Galium); experiment: Postemergence herbicidal evaluation; assay type: in vivo, Galium aparine; details: postemergence
Outline: as §1

[5] = tested on: ECHCG (Barnyardgrass); experiment: Postemergence herbicidal evaluation; assay type: in vivo, Echinochloa crus-galli; details: postemergence
Outline: as §1

[6] = tested on: SETVI (Foxtail, Green); experiment: Postemergence herbicidal evaluation; assay type: in vivo, Setaria viridis; details: postemergence
Outline: as §1

[7] = tested on: GLXMAW (Soybean, Williams); experiment: Postemergence herbicidal evaluation; assay type: in vivo, Glycine max, (L.) Merr. cv Williams; details: postemergence
Outline: as §1

[8] = tested on: ORYSAT (Rice, Tebonnet); experiment: Postemergence herbicidal evaluation; assay type: in vivo, Oryza sativa, (L.) Tebonnet; details: postemergence
Outline: as §1

[9] = tested on: CASOB (Sicklepod); experiment: Preemergence herbicidal evaluation; assay type: in vivo, Cassia obtusifolia; details: preemergence, rated 4-5 weeks after treatment, 0-9 scale
Outline: (§2)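 Seeds were mixed with potting soil and planted on about one inch of soil, then sprayed with test compound in aqueous acetone at about 0.0156 to 0.500 kg per hectare. Plants grew under standard greenhouse care and were visually rated 0-9 against untreated controls 4-5 weeks post-treatment.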

[10] = tested on: GALAP (Galium); experiment: Preemergence herbicidal evaluation; assay type: in vivo, Galium aparine; details: preemergence, rated 4-5 weeks after treatment, 0-9 scale
Outline: as §2

[11] = tested on: ZEAMX (Corn, Field); experiment: Preemergence herbicidal evaluation; assay type: in vivo, Zea mays; details: preemergence, rated 4-5 weeks after treatment, 0-9 scale
Outline: as §2

[12] = tested on: CYPIR (Rice Flatsedge); experiment: Preemergence weed control under flooded paddy conditions; assay type: in vivo, Cyperus iria; details: rated 3-4 weeks after treatment
Outline: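 Flooded-pot preemergence screen with silt loam and seeds in the upper 0.5 cm. Dose about 0.0313 to 0.500 kg/ha, delivered into flood water; visual 0-9 score after 3 to 4 weeks.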

[13] = tested on: CYPSE (Flatsedge); experiment: as above; assay type: in vivo, Cyperus serotinus; details: rated 3-4 weeks after treatment
Outline: (§3)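 Seeds or propagules sown in top 0.5 cm of silt loam soil, flooded 1.5 to 3 cm above surface throughout. Compound in 50/50 v/v aqueous/acetone pipetted into flood water at about 0.0313 to 0.500 kg/ha. Visual 0-9 rating versus control after three to four weeks in greenhouse.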

[14] = tested on: SAGPY (Arrowhead (Pygmaea)); experiment: as above; assay type: in vivo, Sagittaria pygmaea; details: rated 3-4 weeks after treatment
Outline: as §3

[15] = tested on: CYPSE (Flatsedge); experiment: Postemergence weed control under flooded paddy conditions; assay type: in vivo, Cyperus serotinus; details: postemergence weeds, rated 3 to 4 weeks after treatment
Outline: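 Weeds 3 to 5 cm tall and rice seedlings at the 1.5 to 2.5 leaf stage were flooded, with water held 1.5 to 3 cm above the soil. Compounds in 50/50 v/v aqueous/acetone went into the flood water at about 0.0313 to 0.500 kg/ha. Visual 0-9 ratings versus control were made 3 to 4 weeks later.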

CCOC(=O)CN1C(=O)C(CC(=O)NS(=O)(=O)CC)SC1=Nc1cc(-n2c(=O)cc(C(F)(F)F)n(C)c2=O)c(F)cc1Cl (stereo not drawn) [Compound 103, Ethyl 2-{{2-chloro-5-[3,6-dihydro-3-methyl-2,6-dioxo-4-(trifluoromethyl)-1(2H)-pyrimidinyl]-4-fluorophenyl}imino}-5-{[(ethylsulfonyl)carbamoyl]-methyl}-4-oxo-3-thiazolidineacetate]
5.0: herbicidal rating CHEAL ([3]; rate 0.0625 kg/ha) | herbicidal rating GALAP ([4]; rate 0.0625 kg/ha) | herbicidal rating SETVI ([6]; rate 0.0313 kg/ha) | CYPSE herbicidal effect rating ([13]; 0.0313 kg/ha) | CYPSE herbicidal effect rating ([13]; 0.0625 kg/ha) | Herbicidal rating CYPSE ([15]; Rate 0.0313 kg/ha) | Herbicidal rating CYPSE ([15]; Rate 0.0625 kg/ha)
2.0: herbicidal rating ORYSAT ([8]; rate 0.0313 kg/ha)
1.0: ZEAMX rating ([11]; 0.5000 kg/ha)
3.5: herbicidal rating ORYSAT ([8]; rate 0.1250 kg/ha)
1.5: herbicidal rating ORYSAT ([8]; rate 0.0156 kg/ha)
7.0: herbicidal rating GALAP ([4]; rate 0.1250 kg/ha) | herbicidal rating GLXMAW ([7]; rate 0.0313 kg/ha) | GALAP rating ([10]; 0.5000 kg/ha) | SAGPY herbicidal effect rating ([14]; 0.0313 kg/ha)
8.0: herbicidal rating GLXMAW ([7]; rate 0.0156 kg/ha)
9.0: herbicidal rating AMBEL ([1]; rate 0.0156 kg/ha) | herbicidal rating AMBEL ([1]; rate 0.0313 kg/ha) | herbicidal rating AMBEL ([1]; rate 0.0625 kg/ha) | herbicidal rating AMBEL ([1]; rate 0.1250 kg/ha) | herbicidal rating CHEAL ([3]; rate 0.1250 kg/ha) | herbicidal rating ECHCG ([5]; rate 0.0313 kg/ha) | herbicidal rating ECHCG ([5]; rate 0.0625 kg/ha) | herbicidal rating ECHCG ([5]; rate 0.1250 kg/ha) | herbicidal rating SETVI ([6]; rate 0.0625 kg/ha) | herbicidal rating SETVI ([6]; rate 0.1250 kg/ha) | herbicidal rating GLXMAW ([7]; rate 0.0625 kg/ha) | herbicidal rating GLXMAW ([7]; rate 0.1250 kg/ha) | CYPIR herbicidal effect rating ([12]; 0.1250 kg/ha) | CYPIR herbicidal effect rating ([12]; 0.2500 kg/ha) | SAGPY herbicidal effect rating ([14]; 0.0625 kg/ha) | SAGPY herbicidal effect rating ([14]; 0.1250 kg/ha) | SAGPY herbicidal effect rating ([14]; 0.2500 kg/ha)
0.0: herbicidal rating CASOB ([2]; rate 0.0156 kg/ha) | herbicidal rating GALAP ([4]; rate 0.0156 kg/ha) | CASOB rating ([9]; 0.0313 kg/ha) | CASOB rating ([9]; 0.0625 kg/ha) | CASOB rating ([9]; 0.1250 kg/ha) | GALAP rating ([10]; 0.0313 kg/ha) | GALAP rating ([10]; 0.0625 kg/ha) | GALAP rating ([10]; 0.1250 kg/ha) | GALAP rating ([10]; 0.2500 kg/ha) | ZEAMX rating ([11]; 0.0313 kg/ha) | ZEAMX rating ([11]; 0.0625 kg/ha) | ZEAMX rating ([11]; 0.1250 kg/ha) | ZEAMX rating ([11]; 0.2500 kg/ha)
4.0: herbicidal rating SETVI ([6]; rate 0.0156 kg/ha) | CYPIR herbicidal effect rating ([12]; 0.0313 kg/ha)
2.5: herbicidal rating ORYSAT ([8]; rate 0.0625 kg/ha)
3.0: herbicidal rating CASOB ([2]; rate 0.0313 kg/ha) | herbicidal rating CASOB ([2]; rate 0.0625 kg/ha) | herbicidal rating CASOB ([2]; rate 0.1250 kg/ha) | herbicidal rating CHEAL ([3]; rate 0.0156 kg/ha) | herbicidal rating CHEAL ([3]; rate 0.0313 kg/ha) | herbicidal rating GALAP ([4]; rate 0.0313 kg/ha) | herbicidal rating ECHCG ([5]; rate 0.0156 kg/ha) | CASOB rating ([9]; 0.2500 kg/ha) | CASOB rating ([9]; 0.5000 kg/ha)
6.0: CYPIR herbicidal effect rating ([12]; 0.0625 kg/ha) | CYPSE herbicidal effect rating ([13]; 0.1250 kg/ha) | CYPSE herbicidal effect rating ([13]; 0.2500 kg/ha) | Herbicidal rating CYPSE ([15]; Rate 0.1250 kg/ha) | Herbicidal rating CYPSE ([15]; Rate 0.2500 kg/ha)
